The source made the active and inactive calls.
Assays:
[1] = target: SWI/SNF-related matrix-associated actin-dependent regulator of chromatin subfamily A member 2 (Homo sapiens, UniProt P51531); assay: Luminescence-based cell-based high throughput dose response assay to identify activators of the function of SWI/SNF related, matrix associated, actin dependent regulator of chromatin, subfamily a, member 2 (SMARCA2, BRM).; type: functional
[2] = Counterscreen for activators of the function of SWI/SNF related, matrix associated, actin dependent regulator of chromatin, subfamily a, member 2 (SMARCA2, BRM): Luminescence-based cell-based high throughput dose response assay to identify non-selective compounds using the VP16 reporter assay.; type: functional
[3] = P. falciparum 3D7-ScDHODH growth inhibitors, dose response, SYBR Green, dry powder samples (AID 1159570); type: functional, cell-based;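 also: parasite growth measured after 72 hours of compound exposure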
[4] = HepG2 cell cytotoxicity, dose response, cytotoxicity control, plate reader, dry powder samples (AID 1159569); type: functional, cell-based;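 also: inhibitor potency with signal falling toward the positive control level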
[5] = P. falciparum Dd2 growth inhibitors, dose response, SYBR Green, cherry-picked samples (AID 1159567); type: functional, cell-based
[6] = P. falciparum Dd2 growth inhibitors, dose response, SYBR Green, dry powder samples (AID 1159566); type: functional, cell-based;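 also: potency for growth inhibition with lower SYBR green DNA signal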
[7] = P. falciparum ATP4 D1247Y mutant growth inhibitors, dose response, NITD609-resistant line, SYBR Green, dry powder (AID 1159571); type: functional, cell-based;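 also: parasites synchronized at ring stage by sorbitol before testing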
[8] = Luminescence Cell-Based Dose Retest to Confirm Inhibitors of Cancer Stem Cells. [Related pubchem assays (depositor defined):AID2717, AID2721]; type: functional; settings: Homo sapiens
Caspase-3 = target: T1, Caspase-3 (Homo sapiens, UniProt P42574); type: functional;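 also: Dose-response selectivity test against caspase-3 for candidate inhibitors of sentrin-specific proteases (SENPs)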
T1 sequence (P42574 whole entry): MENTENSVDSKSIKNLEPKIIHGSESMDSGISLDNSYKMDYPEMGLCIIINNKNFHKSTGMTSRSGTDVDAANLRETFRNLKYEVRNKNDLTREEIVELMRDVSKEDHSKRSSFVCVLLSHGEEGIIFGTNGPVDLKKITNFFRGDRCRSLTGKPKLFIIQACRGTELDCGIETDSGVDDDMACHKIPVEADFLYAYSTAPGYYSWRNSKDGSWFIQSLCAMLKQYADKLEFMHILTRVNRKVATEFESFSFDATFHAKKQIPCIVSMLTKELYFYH

[9] = target: T2, Sentrin-specific protease 7 (Homo sapiens, UniProt Q9BQF6); type: functional;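 also: Luminescence-based dose-response confirmation of ultra-high-throughput screening hits, measuring inhibition of SENP7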
T2 sequence (Q9BQF6 whole entry): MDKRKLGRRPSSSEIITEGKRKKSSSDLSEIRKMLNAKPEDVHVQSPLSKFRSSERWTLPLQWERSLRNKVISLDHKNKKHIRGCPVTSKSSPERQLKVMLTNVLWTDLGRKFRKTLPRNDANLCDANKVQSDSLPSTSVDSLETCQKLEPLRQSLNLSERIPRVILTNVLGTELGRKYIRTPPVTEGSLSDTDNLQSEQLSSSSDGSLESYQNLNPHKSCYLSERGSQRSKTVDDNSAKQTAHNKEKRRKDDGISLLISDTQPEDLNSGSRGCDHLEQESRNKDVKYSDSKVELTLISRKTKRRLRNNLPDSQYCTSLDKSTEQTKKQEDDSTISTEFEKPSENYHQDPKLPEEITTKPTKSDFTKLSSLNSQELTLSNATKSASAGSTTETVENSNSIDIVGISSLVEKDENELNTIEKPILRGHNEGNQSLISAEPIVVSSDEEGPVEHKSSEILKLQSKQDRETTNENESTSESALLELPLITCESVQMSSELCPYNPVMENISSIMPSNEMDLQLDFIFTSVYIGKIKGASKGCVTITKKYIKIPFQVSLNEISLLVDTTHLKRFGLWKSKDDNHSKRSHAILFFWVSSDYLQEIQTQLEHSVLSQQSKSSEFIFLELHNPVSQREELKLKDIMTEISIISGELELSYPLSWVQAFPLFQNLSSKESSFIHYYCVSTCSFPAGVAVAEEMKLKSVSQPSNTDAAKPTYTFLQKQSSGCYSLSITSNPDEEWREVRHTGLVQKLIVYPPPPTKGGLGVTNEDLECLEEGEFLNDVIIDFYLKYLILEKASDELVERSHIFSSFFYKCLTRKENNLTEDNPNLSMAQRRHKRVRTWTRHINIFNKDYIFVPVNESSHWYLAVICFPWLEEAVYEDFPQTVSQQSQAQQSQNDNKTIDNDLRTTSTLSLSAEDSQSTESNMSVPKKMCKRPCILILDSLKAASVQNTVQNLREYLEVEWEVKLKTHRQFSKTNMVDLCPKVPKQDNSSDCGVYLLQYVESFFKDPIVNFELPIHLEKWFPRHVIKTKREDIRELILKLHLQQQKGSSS

[10] = target: T3, Sentrin-specific protease 6 (Homo sapiens, UniProt Q9GZR1); type: functional;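 also: Luminescence-based dose-response confirmatory assay of SENP6 inhibition, following up an ultra-high-throughput screen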
T3 sequence (Q9GZR1 whole entry): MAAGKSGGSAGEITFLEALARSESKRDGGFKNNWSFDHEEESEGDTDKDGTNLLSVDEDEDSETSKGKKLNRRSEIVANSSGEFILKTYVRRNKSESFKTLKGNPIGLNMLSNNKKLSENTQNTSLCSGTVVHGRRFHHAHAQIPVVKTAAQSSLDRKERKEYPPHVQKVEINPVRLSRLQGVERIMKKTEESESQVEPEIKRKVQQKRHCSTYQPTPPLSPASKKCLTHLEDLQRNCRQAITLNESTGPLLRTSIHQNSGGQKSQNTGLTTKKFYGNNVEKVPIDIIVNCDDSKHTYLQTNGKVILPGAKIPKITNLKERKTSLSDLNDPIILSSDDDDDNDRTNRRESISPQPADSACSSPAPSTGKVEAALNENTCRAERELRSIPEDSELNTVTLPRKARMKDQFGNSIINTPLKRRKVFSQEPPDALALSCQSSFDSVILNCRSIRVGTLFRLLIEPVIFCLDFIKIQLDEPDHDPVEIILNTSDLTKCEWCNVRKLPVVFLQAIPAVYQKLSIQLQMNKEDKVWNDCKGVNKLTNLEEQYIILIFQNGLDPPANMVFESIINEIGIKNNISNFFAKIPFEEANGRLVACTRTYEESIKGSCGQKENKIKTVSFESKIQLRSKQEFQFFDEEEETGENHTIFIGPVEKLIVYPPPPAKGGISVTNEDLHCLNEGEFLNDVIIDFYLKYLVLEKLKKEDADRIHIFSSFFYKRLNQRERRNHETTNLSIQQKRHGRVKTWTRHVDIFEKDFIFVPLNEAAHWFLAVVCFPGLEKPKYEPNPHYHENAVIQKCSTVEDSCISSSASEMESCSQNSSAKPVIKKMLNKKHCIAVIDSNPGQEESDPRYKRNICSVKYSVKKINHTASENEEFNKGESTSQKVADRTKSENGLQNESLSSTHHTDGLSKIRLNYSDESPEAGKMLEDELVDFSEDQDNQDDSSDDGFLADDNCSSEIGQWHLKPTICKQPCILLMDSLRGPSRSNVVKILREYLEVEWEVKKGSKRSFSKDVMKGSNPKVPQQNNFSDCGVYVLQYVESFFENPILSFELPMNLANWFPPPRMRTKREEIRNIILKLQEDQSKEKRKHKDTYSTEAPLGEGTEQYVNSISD

[11] = target: T4, Sentrin-specific protease 8 (Homo sapiens, UniProt Q96LD8); type: functional;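 also: luminescence read-out of SENP8 inhibition, dose-response confirmation following an ultra-high-throughput screen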
T4 sequence (Q96LD8 whole entry): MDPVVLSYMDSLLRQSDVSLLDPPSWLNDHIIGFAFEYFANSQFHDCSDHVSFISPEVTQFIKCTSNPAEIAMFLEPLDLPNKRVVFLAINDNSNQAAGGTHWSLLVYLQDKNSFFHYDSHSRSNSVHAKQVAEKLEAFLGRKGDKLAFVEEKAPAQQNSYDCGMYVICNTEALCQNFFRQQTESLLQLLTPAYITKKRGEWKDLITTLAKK

INS1 = assay: beta cell apoptosis inhibitors, cytokine rescue, dose response, luminescence, retest (AID 449756); type: functional, cell-based; settings: Rattus norvegicus;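 also: cell death triggered by IL-1 beta plus TNF-alpha plus IFN-gamma mixture; protective hits raise ATP signal compared with cytokine alone wells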
Paired box protein Pax-8 = Paired box protein Pax-8 (Homo sapiens, UniProt Q06710); assay: inhibitors of PAX8-driven TPO luciferase reporter, dose response, RMG-I cells, cherry-pick (AID 687027); type: functional, cell-based;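 also: luciferase reporter driven by Pax8 target thyroperoxidase promoter measured by SteadyGlo luminescence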
[12] = intracellular Trypanosoma cruzi inhibitors in host cells – cell-based, plate reader, cherry-pick samples, set 3, dose response (AID 651818); type: functional;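 also: compounds incubated with infected cells for about four days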
[13] = A cytotoxicity screen of small molecule inhibitors of the PhoP region in Salmonella typhi identified in the primary screen. [Related pubchem assays: 1850, 1864, 1985 ]; type: functional
[14] = inhibitors of PGC1a acetylation in cells, dose response, cell-based, cherry-picked samples (AID 720514); type: functional;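 also: potency may reflect raised or lowered acetylation signal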
[15] = inhibitors of firefly luciferase expression or activity, dose response, H4 neuroglioma cells, luminescence (AID 1990); type: functional, cell-based
[16] = Luminescence Cell-Based Dose Response HTS to Identify Inhibitors of 5'UTR Stem-Loop Driven Prion Protein mRNA Translation in H4 Neuroglioblastoma Cells. [Related pubchem assays: 1827 (Project Summary), 1813 (Primary HTS)]; type: functional
[17] = inhibitors of SNCA 5'UTR-driven reporter translation, confirmation, H4 neuroglioma cells, luminescence (AID 1988); type: functional, cell-based
Vero = assay: cells; type: functional; settings: Chlorocebus sabaeus
[18] = inhibitors of HIV Env-driven cell fusion, dose response, cherry-pick (AID 652057); type: functional, cell-based
[19] = ZM109 Env clade C HIV-1 fusion inhibitors, dose response, HeLa effector, CEM target cells, luciferase, cherry-pick (AID 652058); type: functional, cell-based
[20] = inhibitors of clade B AD8 Env fusion, dose response, cell-based, cherry-pick (AID 652062); type: functional;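 also: luciferase signal from cell-cell fusion driven by HIV-1 clade B AD8 Env; potency is for inhibitors of fusion seen as a drop in luminescence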

Sequence of Paired box protein Pax-8 (Q06710 whole entry): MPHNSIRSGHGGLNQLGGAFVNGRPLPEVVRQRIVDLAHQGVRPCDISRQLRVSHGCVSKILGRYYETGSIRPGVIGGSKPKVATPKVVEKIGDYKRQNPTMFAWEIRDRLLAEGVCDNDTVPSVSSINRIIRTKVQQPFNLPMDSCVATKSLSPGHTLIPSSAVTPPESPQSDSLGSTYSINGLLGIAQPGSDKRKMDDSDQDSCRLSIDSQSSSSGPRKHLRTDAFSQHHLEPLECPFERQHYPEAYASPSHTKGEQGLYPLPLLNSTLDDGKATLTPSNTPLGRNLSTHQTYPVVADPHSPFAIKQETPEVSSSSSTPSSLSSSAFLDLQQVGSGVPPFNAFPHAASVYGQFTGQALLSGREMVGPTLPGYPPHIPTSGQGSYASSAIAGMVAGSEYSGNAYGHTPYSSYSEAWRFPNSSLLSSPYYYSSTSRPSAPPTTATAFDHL
Sequence of SWI/SNF-related matrix-associated actin-dependent regulator of chromatin subfamily A member 2 (P51531 whole entry): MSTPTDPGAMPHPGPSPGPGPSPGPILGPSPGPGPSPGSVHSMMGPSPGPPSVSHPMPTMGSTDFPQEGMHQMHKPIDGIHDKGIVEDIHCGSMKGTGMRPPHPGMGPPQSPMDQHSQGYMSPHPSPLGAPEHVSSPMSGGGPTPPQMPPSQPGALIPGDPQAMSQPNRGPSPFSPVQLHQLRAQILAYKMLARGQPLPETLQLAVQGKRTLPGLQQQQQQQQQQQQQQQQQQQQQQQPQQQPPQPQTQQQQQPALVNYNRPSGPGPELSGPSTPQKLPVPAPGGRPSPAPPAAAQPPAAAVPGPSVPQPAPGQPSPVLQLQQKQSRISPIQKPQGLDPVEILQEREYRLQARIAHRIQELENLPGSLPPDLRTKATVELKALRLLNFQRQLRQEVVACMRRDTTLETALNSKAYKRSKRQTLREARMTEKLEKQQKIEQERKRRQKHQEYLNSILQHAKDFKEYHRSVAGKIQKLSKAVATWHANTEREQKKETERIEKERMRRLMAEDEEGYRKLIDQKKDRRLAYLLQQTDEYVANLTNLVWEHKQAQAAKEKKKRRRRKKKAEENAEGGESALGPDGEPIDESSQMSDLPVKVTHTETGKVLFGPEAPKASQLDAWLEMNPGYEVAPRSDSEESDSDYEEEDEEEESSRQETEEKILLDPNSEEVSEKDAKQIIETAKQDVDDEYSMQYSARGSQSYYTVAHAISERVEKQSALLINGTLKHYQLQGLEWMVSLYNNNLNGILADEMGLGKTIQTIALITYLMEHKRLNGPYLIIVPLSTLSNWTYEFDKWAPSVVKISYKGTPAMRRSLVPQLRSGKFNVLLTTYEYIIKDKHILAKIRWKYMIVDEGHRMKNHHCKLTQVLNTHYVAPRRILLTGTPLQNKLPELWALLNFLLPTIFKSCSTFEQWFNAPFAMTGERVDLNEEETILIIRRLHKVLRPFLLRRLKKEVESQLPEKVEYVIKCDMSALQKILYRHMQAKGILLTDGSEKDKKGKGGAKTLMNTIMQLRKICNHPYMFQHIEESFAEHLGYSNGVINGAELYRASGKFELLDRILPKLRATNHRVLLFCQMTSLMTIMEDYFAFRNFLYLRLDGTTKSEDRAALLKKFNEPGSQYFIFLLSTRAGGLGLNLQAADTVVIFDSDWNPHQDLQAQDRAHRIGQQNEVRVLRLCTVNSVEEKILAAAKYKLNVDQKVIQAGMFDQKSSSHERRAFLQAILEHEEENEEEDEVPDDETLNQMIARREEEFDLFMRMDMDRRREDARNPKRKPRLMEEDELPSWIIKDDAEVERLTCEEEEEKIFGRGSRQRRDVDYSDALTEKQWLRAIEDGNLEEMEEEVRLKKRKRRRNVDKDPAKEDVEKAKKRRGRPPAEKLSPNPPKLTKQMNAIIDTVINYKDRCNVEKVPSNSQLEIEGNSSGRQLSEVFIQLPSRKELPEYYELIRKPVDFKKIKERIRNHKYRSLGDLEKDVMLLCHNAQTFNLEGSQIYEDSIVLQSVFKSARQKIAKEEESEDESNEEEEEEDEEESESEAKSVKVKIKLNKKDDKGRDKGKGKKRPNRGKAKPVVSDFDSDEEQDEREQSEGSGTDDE

## C=C1C(=O)OC2C1CCC(C)C1C=CC(=O)C12C (configuration not stated)
[1]
  EC50: > 91.2 µM (inactive)
[2]
  EC50: > 91.2 µM (inactive)

## OC[C@@H]1CC[C@@H]2O[C@H](CCc3ccc(-c4ccccc4)cc3)[C@H](n3cc(-c4ccccc4)nn3)C[C@@H]2O1
[3]
  AC50: 1.38 µM (active)
[4]
  AC50: > 100 µM (inactive)
[5]
  AC50: 1.34 µM (active)
[6]
  AC50: 0.555 µM (active)
[7]
  AC50: 0.885 µM (active)

## COc1cc(Cl)c(NC2=CC(=O)C(=O)c3ccccc32)c(OC)c1
[8]
  AC50: 1.15 µM (active)
Caspase-3
  IC50: 28.8 µM (active)
[9]
  IC50: 15.6 µM (active)
[10]
  IC50: 9.11 µM (active)
[11]
  IC50: 14.5 µM (active)
INS1
  AC50: 3.33 µM (active)
Paired box protein Pax-8
  AC50: 4.49 µM (active)

## C[C@@H]1CN([C@H](C)CO)C(=O)c2cccc(NC(=O)Nc3cccc4ccccc34)c2O[C@@H]1CN(C)Cc1ccc(C(F)(F)F)cc1
[12]
  AC50: 6.48 µM (active)

## C[C@H](CO)N1C[C@H](C)[C@@H](CN(C)Cc2ccc(Cl)c(Cl)c2)Oc2c(NC(=O)Nc3cccc4ccccc34)cccc2C1=O
[12]
  AC50: 9.77 µM (active)

## COc1ccccc1CNC(=O)COc1ccccc1C(=O)c1cnn(-c2ccccc2)c1
Caspase-3
  IC50: 21.9 µM (active)
[9]
  IC50: 11.4 µM (active)
[10]
  IC50: 26.1 µM (active)
[11]
  IC50: 24.3 µM (active)

## CC1CCC[C@H](O)CCCCCc2cc(O)cc(O)c2C(=O)O1 (some centres not stated)
[13]
  EC50: > 50 µM (active)
[14]
  AC50: 35.9 µM (active)

## COc1ccc(CCn2c(C3CCCCC3)nc3c(c(=O)c4ccccc4n3C)c2=O)cc1
[15]
  EC50: > 120 µM (not active)
[16]
  EC50: 0.438 µM (active)
[17]
  EC50: 17.1 µM (active)
[8]
  AC50: 2.4 µM (active)
Vero
  CC50: 9.23 µM (active)

## C/C=C/c1ccc2c(c1)[C@H]1[C@H](CCN1C(=O)c1cccc(F)c1)[C@H](CO)N2
[3]
  AC50: 1.46 µM (active)
[4]
  AC50: > 100 µM (inactive)
[5]
  AC50: 1.54 µM (active)
[6]
  AC50: 1.05 µM (active)
[7]
  AC50: 1.64 µM (active)

## COc1ccc(CNC(=O)N(C)C[C@@H]2OCc3ccccc3-c3c(n(C)c4ccccc34)C(=O)N([C@H](C)CO)C[C@@H]2C)cc1
[18]
  AC50: < 0.235 µM (active)
[19]
  AC50: < 0.235 µM (active)
[20]
  AC50: < 0.235 µM (active)

## C[C@@H]1CN([C@@H](C)CO)S(=O)(=O)c2ccc(/C=C/c3ccccc3)cc2O[C@H]1CN(C)Cc1cccnc1
[3]
  AC50: 1.6 µM (active)
[4]
  AC50: 56.2 µM (active)
[5]
  AC50: 1.93 µM (active)
[6]
  AC50: 1.63 µM (active)
[7]
  AC50: 2.15 µM (active)

## COc1ccc(-c2cnc3c(c2)C(=O)N([C@H](C)CO)C[C@@H](C)[C@@H](CN(C)C(=O)Nc2c(C)noc2C)O3)cc1
[14]
  AC50: 12.2 µM (active)

## COCn1c(COc2ccccc2)nc2ccccc21
[1]
  EC50: > 91.2 µM (inactive)
[2]
  EC50: > 91.2 µM (inactive)

## C[C@@H]1CN([C@H](C)CO)C(=O)Cc2cc(NC(=O)Nc3ccc4c(c3)OCO4)ccc2O[C@@H]1CN(C)Cc1ccc(C(=O)Nc2ccccc2N)cc1
[12]
  AC50: 2.04 µM (active)

## C[C@H]1CN([C@@H](C)CO)C(=O)Cc2cc(NC(=O)Nc3ccc(C(F)(F)F)cc3)ccc2O[C@@H]1CN(C)CC1CCCCC1
[12]
  AC50: 3.54 µM (active)

## COc1ccc(S(=O)(=O)Nc2ccc3c(c2)C(=O)N([C@H](C)CO)C[C@H](C)[C@@H](CN(C)Cc2ccc(Cl)c(Cl)c2)OCCCC[C@@H](C)O3)cc1
[12]
  AC50: 2.64 µM (active)
Paired box protein Pax-8
  AC50: 10.2 µM (active)
